Legend:
[1] = Patient peripheral blood / neutrophil recovery during treatment; format: in vivo, human; conditions: one patient, 4 cycles of low-dose treatment (FIG. 10A, 11A)
Excerpt: FIGS. 10A and 10B show examples of visual representations of dynamic prediction of peripheral blood recovery determined using the method according to embodiments.
FIGS. 11A and 11B show examples of visual representations of retrospective comparisons of dynamic prediction of absolute neutrophils count (lines) determined using the method according to embodiments and patient clinical assessment of daily neutrophils count during treatment (dots).
The patient initially presented with granulocytic dysplasia that delayed neutrophil recovery.

[2] = system: leukemic blasts; test: Patient leukemia response to treatment (percentage of leukemic blasts in BM, clinical assessments compared with simulation); format: in vivo, human; conditions: one patient
Excerpt: FIGS. 9A and 9B show examples of visual representations of retrospective comparisons of dynamic prediction of the overall percentage of abnormal cells/leukemic blasts (lines) determined using the method according to embodiments and patient clinical assessments (dots).
FIGS. 9A and 9B show examples of visualizations of dynamic prediction of the overall percentage of leukemic blasts. By showing the percentage of overall leukemic blasts (addition of all subclones) in graphs, the leukemic burden in BM can be visualized.

Compound: Nc1ccn([C@@H]2O[C@H](CO)[C@@H](O)[C@@H]2O)c(=O)n1 [Ara-C, Cytosine Arabinoside]
- hematological recovery [1]: complete hematological recovery
- treatment outcome ([2]; 2 cycles of low-dose treatment (FIG. 9A)): complete remission
- leukemic blasts ([2]; 2 cycles of low-dose treatment (FIG. 9A), bone marrow): < 5%
- treatment outcome ([2]; 4 cycles of low-dose treatment (FIG. 10A, 11A)): complete remission

From patent US20240428951A1, “METHODS AND SYSTEMS FOR PERSONALIZED IN-SILICO HEMATOPOIESIS AND DISEASE/LEUKEMIA SIMULATION FOR TREATMENT SELECTION AND OPTIMIZATION” (GEORGIA TECH RESEARCH CORPORATION, priority 2021, published 2024)
